From patent US20130210024A1, “COMBINATION TREATMENT OF CANCER” (Agency for Science, Technology and Research, priority 2010, published 2013)
Residues, ends and D or L forms follow the SMILES beside them. *: point of attachment. Cbz = O=C(OCc1ccccc1)*

How the values were obtained:
[1] = test system: U2OS cells; experiment: FACS cell cycle / apoptosis analysis in U2OS cells, EZH2 RNA interference plus ADR or ETO; type: cell-based, human; settings: control (non-knockdown) U2OS cells treated with the DNA damaging agent alone; FIG. 1A
Protocol: (§1) The human colorectal cancer HCT116 cells were kindly provided by Dr. Bert Vogelstein (John Hopkins University, MD). Other cell lines used in this study, including human osteosarcoma U2OS and Saos-2 and breast cancer MCF7 were obtained from the American Type Culture Collection (ATCC) and maintained in Dulbecco's modified Eagle medium (DMEM) supplemented with 10% fetal bovine serum (FBS) and antibiotics in a 37° C. humidified incubator containing 5% CO2. Human breast epithelial MCF10A cells were obtained from ATCC and maintained as recommended (Kadota et al 2010). Adramycin (ADR), Etopside (ETO), Nocodazole (Noco), proteasomal inhibitors MG132 and MG115 were purchased from Sigma-Aldrich.
Specific siRNA oligos targeting EZH2 (as described above) and FBXO32 (FBXO32 siRNA: 5_-GTCACATCCTTTCCTGGAA-3_) mRNAs were used. The non-targeting control was purchased from Dharmacon (Lafayett, Colo.). For EZH2 knockdown, a sequential twice knockdown is performed to secure efficient gene silencing. […]
Cells were harvested and fixed in 70% ethanol. […] The stained cells were analyzed for DNA content by fluorescence-activated cell sorting (FACS) in a FACS Calibur (Becton Dickinson Instrument, San Jose, Calif.). Cell cycle fractions were quantified using the CellQuest software (Becton Dickinson). […]

[2] = test system: EZH2 complex; settings: cancer cells; previously shown (Tan et al., 2007); cited from earlier work
[3] = test system: p21 mRNA; experiment: p21 mRNA level (Taqman quantitative real-time PCR); type: cell-based, human; settings: DZNep with ADR or ETO; data not shown
Protocol: Total RNA was isolated using Trizol (Invitrogen) and purified with the RNeasy Mini Kit (Qiagen). Reverse transcription was performed using an RNA Amplification kit (Ambion). Quantitative real-time PCR was assessed using the PRISM 7900 Sequence Detection System (Applied Biosystems) with specific probes from Applied Biosystem. Samples were normalized to the levels of GAPDH mRNA.

[4] = test system: non-transformed MCF-10A, IMR90 and RWEP cells; experiment: ADR or ETO-induced apoptosis in non-transformed cells with DZNep; type: cell-based, human; settings: data not shown
Protocol: as §1
(§2) Cells were harvested and fixed in 70% ethanol. Fixed cells were stained with propidium iodide (50 μg/mL) after treatment with RNase (100 μg/mL). The stained cells were analyzed for DNA content by fluorescence-activated cell sorting (FACS) in a FACS Calibur (Becton Dickinson Instrument, San Jose, Calif.). Cell cycle fractions were quantified using the CellQuest software (Becton Dickinson). For synchronization experiment, HCT116 cells expressing FBXO32 or empty vector were treated with Nocodazole (400 ng/ml) for 16 h, mitotically arrested cells were treated with ADR and then subject to FACS for cell cycle analysis.

[5] = test system: U2OS, HCT116, Saos-2 and p53-deficient HCT116 cells; experiment: FACS cell cycle / apoptosis analysis, DZNep combined with ADR or ETO in cancer cells; type: cell-based, human
Protocol: as §1, §2

[6] = test system: FBXO32, p21, p-Chk1; experiment: Immunoblot analysis of FBXO32, p21 and Chk1 phosphorylation after DZNep with ADR or ETO; type: cell-based, human
Protocol: as §1
Protein extracts were prepared by lysis in RIPA buffer containing (50 mM Tris-HCl, pH 7.4, 150 mM NaCl, 1% Nonidet P-40, 0.5% sodium deoxycholate, 0.1% SDS, 1 mM EDTA, 50 mM NaF, 0.1 mM Na3VO4) and protease inhibitor cocktail (Roch). Lysates were resolved by SDS-PAGE, transferred onto a immobilon membrane (Millipore) and probed with indicated antibodies. For co-immunoprecipitation experiments, cells were lysed and incubated with the indicated antidodies and protein G-seperose beads overnight at 4° C. Beads were washed four times with lysis buffer. The bound proteins were dissolved in SDS sample buffer, resolved by SDS-PAGE, and immunoblotted with the indicated antibodies. Where indicated, proteosome inhibitors MG-132 (5 μM) or MG-115 (20 μM) were used to treat cells for 8 h before protein extraction. Antibodies used in this study include: anti-EZH2 (Cell Signaling), anti-p21 (Santa Cruz), anti-FBXO32 (Santa Cruz), anti-p53 (Santa Cruz), anti-MDM2 (Santa Cruz), anti-phospho-Chk1 (Cell signaling), anti-Chk1 (Santa Cruz), anti-phospho-Chk2 (Cell signaling), anti-Chk2 (Upstate), anti-H3 (Cell signaling), anti-PARP (Cell Signaling), anti-H3K27me3 (Upstate), anti-actin mouse monoclonal (Sigma).

COc1cccc2c1C(=O)c1c(O)c3c(c(O)c1C2=O)C[C@@](O)(C(=O)CO)C[C@@H]3O[C@H]1C[C@H](N)[C@H](O)[C@H](C)O1 [Adriamycin]
cell cycle arrest / apoptosis in control cells [1]: mainly cell cycle arrested with little apoptosis

Nc1nccc2c1ncn2[C@@H]1C=C(CO)[C@@H](O)[C@H]1O [DZNep, 3-Deazaneplanocin A]
depletion of EZH2 complex [2]: can deplete EZH2 complex | p21 mRNA as cause of p21 protein downregulation [3]: not due to a decrease in p21 mRNA | promotion of ADR or ETO-induced apoptosis in non-transformed cells [4]: did not promote | effect of DZNep on DNA damage-induced apoptosis, p21 and p-Chk1 when FBXO32 is knocked down ([5]; HCT116 cells with FBXO32 knockdown, FIGS. 4E, 4F): largely abolished when FBXO32 was knockdown | checkpoints activation (FACS) ([5]; combination of DZNep with ADR or ETO, HCT116 or U2OS cells, FIG. 4A): abrogates checkpoints activation | checkpoints (FACS), p53-deficient cells ([5]; combination of DZNep with ADR or ETO, p53-deficient HCT116 or Saos-2 cells, FIG. 4C): abrogates checkpoints | effect on ADR or ETO-induced cell cycle arrest / apoptosis ([5]; pretreatment with DZNep, then ADR or ETO, p53-proficient U2OS and HCT116, p53-deficient Saos-2 and HCT116 cells, FIGS. 4A, 4C): converted ADR or ETO-induced cell cycle arrest to marked apoptosis | p21 and/or p-Chk1 induction by ADR or ETO ([6]; DZNep with ADR or ETO, U2OS, HCT116, Saos-2, p53-deficient HCT116, FIGS. 4B, 4D): largely abolished | FBXO32 induction ([6]; EZH2 depletion by DZNep, U2OS, HCT116, Saos-2, p53-deficient HCT116, FIGS. 4B, 4D): accompanied with FBXO32 induction | ADR or ETO-induced p21 accumulation and Chk1 phosphorylation ([6]; combination of DZNep with ADR or ETO, HCT116 and U2OS cells, FIG. 4B): abolishes | DNA damage induced p21 accumulation and Chk1 phosphorylation, p53-deficient cells ([6]; combination of DZNep with ADR or ETO, p53-deficient HCT116 and Saos-2 cells, FIG. 4D): abolishes

COc1cc([C@@H]2c3cc4c(cc3[C@@H](O[C@@H]3O[C@@H]5CO[C@@H](C)O[C@H]5[C@H](O)[C@H]3O)[C@H]3COC(=O)[C@H]23)OCO4)cc(OC)c1O [Etoposide]
cell cycle arrest / apoptosis in control cells [1]: mainly cell cycle arrested with little apoptosis

CC(C)C[C@@H](C=O)NC(=O)[C@H](CC(C)C)NC(=O)[C@H](CC(C)C)NC(=O)OCc1ccccc1 [MG132] (Cbz-Leu-Leu-Leu-aldehyde)
p21 protein downregulation by DZNep with ADR or ETO, effect of proteasome inhibitor ([6]; MG132 added, data not shown): prevented
